Source: patent US20050130252A1, “Stabilized susceptibility tests of aerobic pathogens” (Wyeth Holdings Corporation, priority 2003, published 2005)
≈ marks a conversion by molar mass, not a printed value. Where two headings read alike, the source gives them in different places.

Tests used:
[1] = system: S. aureus ATCC 29213; experiment: Broth microdilution MIC; format: cell-based, Staphylococcus aureus; settings: for MIC: Staphylococcus aureus, ATCC29213, read-out: Minimal Inhibitory Concentration, S. aureus ATCC 29213
Method: The process for preparing susceptibility test medium are the following steps: • a. Preparing Mueller Hinton Broth II medium by adding 22 grams powdered media to 1.0 liter distilled water; • b. Autoclaving (121° C., 15 psi, 15 minutes) and cooling the medium; • c. Adding Oxyrase® up to about 10% final volume and keeping at 35-37° C. in an incubator for 30 minutes; • d. Adding about 50 μL to each well of a 96 well microtiter plate; • e. Weighing drug and adding broth to drug to bring up to about (standard 128 μg/ml); • f. Adding 50 μL of the drug to the first column of the titer plate; • g. Diluting by two-fold serial diluting across or down the plate. • h. Preparing a Prompt™ inoculum at 10^8 CFU/ml; • i. Diluting inoculum 1:100 in the broth at […] in 9.9 ml (1:100) is 10^6 colony forming units (CFU) forming the adjusted inoculum; • j. Adding 50 μL of the adjusted inoculum to the wells of the microtiter plate; • k. Incubating the plates at 35-37° C. for 18-22 hours; and • l. Reading, with the unaided eye, the MIC.
The in vitro activities of tigecycline and control antibiotics were determined by the broth microdilution method as recommended by the NCCLS. (National Committee for Clinical Laboratory Standards, 2003. Methods for Dilution Antimicrobial Susceptibility Tests for Bacteria That Grow Aerobically; Approved Standards: M7-A6, Sixth ed, vol. 23., National Committee for Clinical Laboratory Standards Wayne, Pa.) was used for the standard procedures. MBH with 5% lysed horse blood was used for testing S. pneumoniae and Haemophilus Test Medium was used for testing H. influenzae. Oxyrase® (Oxyrase Inc, Mansfield, Ohio) was used according to the manufacturer's instructions by adding 1 ml of Oxyrase® to 50 ml of media. Media age studies were performed by preparing MHB in multiple flasks, then storing the media under various conditions. MICs were usually performed in duplicate on each day of testing. Storage under anaerobic conditions was conducted in an anaerobic chamber (MACS MG 1000, Don Whitley Scientific LTD). The pH of the media was determined by pH meter (Corning 430). A comparison of the in vitro activity of tigecycline by agar and broth dilution methodolgies with and without Oxyrase® against clinical isolates is shown in Table 1.

[2] = system: E. coli ATCC 25922; experiment: Time-kill assay, fresh vs aged Mueller-Hinton broth; format: cell-based, Escherichia coli; settings: FIG. 1
Method: Time-kill assays were performed by the broth macrodilution method in accordance with the NCCLS guidelines (NCCLS. 1999. Methods for Determining Bactericidal Activity of Antimicrobial Agents; Approved Guidelines: M26-A, vol. 19. National Committee for Clinical Laboratory Standards, Wayne, Pa.). A starting inoculum of approximately 10^6 CFU/ml and a final concentration of the antibiotic equal to four times the MIC were employed for these assays. Flasks containing 50 ml of MHB II with the appropriate antimicrobial agent were inoculated with […] of the test organism in logarithmic growth phase. Test flasks (250 ml) were incubated with shaking (150 RPM) in a 35° C. water bath. Aliquots were removed for the determination of viable counts at 0, 2, 4, 6 and 24 hours. Serial dilutions were prepared in sterile 0.85% sodium chloride solution. The diluted samples (0.05 ml) were plated onto appropriate agar plates trypticase soy agar (TSA) with a spiral plater (Don Whitley Scientific LTD). The plates were incubated at 35° C. in ambient air for 18-22 hours and the number of colonies were determined on the ProtoCOL plate reader plater (Don Whitley Scientific LTD). Killing curves were constructed by plotting the log10 CFU/ml versus time over 24 hours and the change in bacterial concentration was determined. Data is shown graphically in FIG. 1. Presented in Table 3 are the minimal inhibitory concentration results of the effect of media age, fresh vs. aged and Oxyrase® on the activity of tigecycline.
To further establish this effect, a time kill experiment was performed with E. coli ATCC 25922 in fresh and aged media at […] and 1 μg/ml of tigecycline, which represents 1×, and 4×MIC of this organism determined in aged media. […]

[3] = Table 8, S. aureus ATCC 29213, Mueller Hinton Broth + Oxyrase, n = 240
[4] = Table 8, S. aureus ATCC 29213, Mueller Hinton Broth, n = 320
[5] = Table 9, S. aureus ATCC 29213, Mueller Hinton Broth + Oxyrase, n = 29
[6] = Table 9, S. aureus ATCC 29213, Mueller Hinton Broth, n = 131

CN(C)c1cc(NC(=O)CNC(C)(C)C)c(O)c2c1C[C@H]1C[C@H]3[C@H](N(C)C)C(O)=C(C(N)=O)C(=O)[C@@]3(O)C(O)=C1C2=O [Tigecycline, tigecycline]
MIC ([1]; Freshly Prepared media, N = 4): 0.06 to 0.12 µg/mL (≈ 0.102 to 0.205 µM) | MIC ([1]; MHB II + 0.05% Catalase): 0.5 µg/mL | MIC ([1]; MHB II + 0.05% L-ascorbic Acid): 2 µg/mL | MIC ([1]; MHB II + 0.05% L-cysteine): 0.25 µg/mL | MIC ([1]; MHB II + 0.05% Thioglycolate): 0.25 µg/mL | MIC ([1]; MHB II + 2% Oxyrase): 0.12 µg/mL | MIC ([1]; Mueller Hinton Broth II (Fresh)): 0.25 µg/mL (≈ 0.427 µM) | MIC ([1]; Mueller Hinton Broth II (MHB II)): 0.25 to 0.5 µg/mL (≈ 0.427 to 0.854 µM) | MIC ([1]; media Aged Anaerobic, N = 4): 0.06 to 0.12 µg/mL (≈ 0.102 to 0.205 µM) | Number of Occurrences of MIC 0.06 ug/ml [1, 3]: 14 | Number of Occurrences of MIC 0.12 ug/ml [1, 3]: 203 | Number of Occurrences of MIC 0.25 ug/ml [1, 3]: 22 | Number of Occurrences of MIC 0.5 ug/ml [1, 3]: 1 | Number of Occurrences of MIC 0.12 ug/ml [1, 4]: 1 | Number of Occurrences of MIC 0.25 ug/ml [1, 4]: 219 | Number of Occurrences of MIC 0.5 ug/ml [1, 4]: 29 | Number of Occurrences of MIC 1 ug/ml [1, 4]: 62 | Number of Occurrences of MIC 2 ug/ml [1, 4]: 9 | Number of Occurrences of MIC 0.06 ug/ml [1, 5]: 2 | Number of Occurrences of MIC 0.12 ug/ml [1, 5]: 15 | Number of Occurrences of MIC 0.25 ug/ml [1, 5]: 12 | Number of Occurrences of MIC 0.06 ug/ml [1, 6]: 1 | Number of Occurrences of MIC 0.12 ug/ml [1, 6]: 27 | Number of Occurrences of MIC 0.25 ug/ml [1, 6]: 78 | Number of Occurrences of MIC 0.5 ug/ml [1, 6]: 25 | Time kill, growth of E. coli ATCC25922 in aged media ([2]; 0.12 μg/ml of tigecycline, aged media): regrowth of the strain after 6 h exposure | Time kill, growth of E. coli ATCC25922 in fresh media ([2]; 0.12 and 1 μg/ml of tigecycline, fresh media): suppressed the growth | Difference in viable growth, fresh vs aged media (time kill kinetics) ([2]; E. coli ATCC 25922): > 3 log10
